Test results: PubChem BioAssay AID190 (DTP/NCI, 2004)
Values joined by “and” are separate entries in the source; they are usually repeats but may differ in a detail not shown here. Identical values can stand only once. Inconclusive results and toxic doses are left out.

Tested on: AKR/Lw mice, AKR lymphoma ip, median survival T/C
Assay: NCI In Vivo Anticancer Drug Screen. Data for tumor model Lymphoma AKR (Transplanted) (intraperitoneal) in AKR/Lw mice
Conditions: endpoint: median survival time, higher = longer survival
Procedure: The antitumor activity of compounds was measured in mice bearing transplantable tumors. Survival or tumor size were measured and the results are expressed as the measurement made in the treated group (T) divided by the measurement made in the vehicle treated control group (C). The tumor model used in this assay is Lymphoma AKR (Transplanted) (intraperitoneal) in AKR/Lw mice

[1] = dose: 2.0 mg/kg/injection, schedule: Q01DX009 (ip), vehicle: saline
[2] = dose: 12.5 mg/kg/injection, schedule: Q04DX003 (ip), vehicle: saline
[3] = dose: 25.0 mg/kg/injection, schedule: Q01DX001 (ip), vehicle: saline
[4] = dose: 25.0 mg/kg/injection, schedule: Q04DX003 (ip), vehicle: saline
[5] = dose: 100.0 mg/kg/injection, schedule: Q01DX001 (ip), vehicle: saline
[6] = dose: 200.0 mg/kg/injection, schedule: Q01DX001 (ip), vehicle: saline

`S=P(N1CC1)(N1CC1)N1CC1` was tested, and the T/C (dose: 0.1 mg/kg/injection, schedule: Q01DX009 (ip), vehicle: saline) was 110 % of control, the T/C (dose: 0.25 mg/kg/injection, schedule: Q01DX009 (ip), vehicle: saline) was 87 % of control and the T/C (dose: 0.5 mg/kg/injection, schedule: Q01DX009 (ip), vehicle: saline) was 90 % of control. The T/C (dose: 0.5 mg/kg/injection, schedule: Q04DX003 (ip), vehicle: saline) was 117 % of control, the T/C (dose: 1.0 mg/kg/injection, schedule: Q01DX009 (ip), vehicle: saline) was 108 % of control and 112 % of control and 117 % of control and the T/C (dose: 1.0 mg/kg/injection, schedule: Q04DX003 (ip), vehicle: saline) was 120 % of control. The T/C (dose: 1.2 mg/kg/injection, schedule: Q04DX003 (ip), vehicle: saline) was 100 % of control, the T/C (dose: 1.5 mg/kg/injection, schedule: Q01DX001 (ip), vehicle: saline) was 106 % of control and the T/C [1] was 111 % of control. For the same compound, the T/C (dose: 2.5 mg/kg/injection, schedule: Q01DX001 (ip), vehicle: saline) was 104 % of control, the T/C (dose: 2.5 mg/kg/injection, schedule: Q04DX003 (ip), vehicle: saline) was 87 % of control and 112 % of control and 117 % of control and the T/C (dose: 3.0 mg/kg/injection, schedule: Q01DX001 (ip), vehicle: saline) was 109 % of control. The T/C (dose: 3.0 mg/kg/injection, schedule: Q04DX003 (ip), vehicle: saline) was 122 % of control, the T/C (dose: 3.75 mg/kg/injection, schedule: Q01DX009 (ip), vehicle: saline) was 116 % of control and the T/C (dose: 5.0 mg/kg/injection, schedule: Q01DX001 (ip), vehicle: saline) was 95 % of control and 100 % of control and 103 % of control. The T/C (dose: 6.0 mg/kg/injection, schedule: Q01DX001 (ip), vehicle: saline) was 104 % of control and 106 % of control, the T/C (dose: 6.2 mg/kg/injection, schedule: Q01DX001 (ip), vehicle: saline) was 118 % of control and the T/C (dose: 6.25 mg/kg/injection, schedule: Q01DX001 (ip), vehicle: saline) was 123 % of control. For the same compound, the T/C (dose: 7.5 mg/kg/injection, schedule: Q01DX001 (ip), vehicle: saline) was 102 % of control and 116 % of control, the T/C (dose: 7.5 mg/kg/injection, schedule: Q01DX009 (ip), vehicle: saline) was 105 % of control and the T/C (dose: 10.0 mg/kg/injection, schedule: Q01DX001 (ip), vehicle: saline) was 111 % of control. The T/C (dose: 10.0 mg/kg/injection, schedule: Q04DX003 (ip), vehicle: saline) was 87 % of control, the T/C (dose: 15.0 mg/kg/injection, schedule: Q01DX009 (ip), vehicle: saline) was 88 % of control and the T/C (dose: 16.0 mg/kg/injection, schedule: Q04DX003 (ip), vehicle: saline) was 97 % of control. The T/C (dose: 12.0 micrograms/kg/injection, schedule: Q01DX009 (ip), vehicle: saline) was 111 % of control, the T/C (dose: 12.5 micrograms/kg/injection, schedule: Q01DX009 (ip), vehicle: saline) was 102 % of control and the T/C (dose: 25.0 micrograms/kg/injection, schedule: Q01DX009 (ip), vehicle: saline) was 100 % of control and 111 % of control. The T/C (dose: 50.0 micrograms/kg/injection, schedule: Q01DX009 (ip), vehicle: saline) was 105 % of control, the T/C (dose: 100.0 micrograms/kg/injection, schedule: Q01DX009 (ip), vehicle: saline) was 94 % of control and 108 % of control and the T/C (dose: 200.0 micrograms/kg/injection, schedule: Q01DX009 (ip), vehicle: saline) was 102 % of control.
In the case of `CS(=O)(=O)OCCCNCCCOS(C)(=O)=O`, the T/C (dose: 1.6 mg/kg/injection, schedule: Q01DX009 (ip), vehicle: saline) is reported as 94 % of control, the T/C (dose: 1.9 mg/kg/injection, schedule: Q01DX009 (ip), vehicle: saline) is reported as 96 % of control and the T/C [1] is reported as 107 % of control. For the same compound, the T/C (dose: 3.1 mg/kg/injection, schedule: Q01DX009 (ip), vehicle: saline) was 88 % of control and 100 % of control and 115 % of control, the T/C (dose: 3.8 mg/kg/injection, schedule: Q01DX009 (ip), vehicle: saline) was 106 % of control and the T/C (dose: 4.0 mg/kg/injection, schedule: Q01DX009 (ip), vehicle: saline) was 103 % of control. For the same compound, the T/C (dose: 6.2 mg/kg/injection, schedule: Q01DX009 (ip), vehicle: saline) was 102 % of control, the T/C (dose: 6.3 mg/kg/injection, schedule: Q01DX009 (ip), vehicle: saline) was 97 % of control and the T/C (dose: 8.0 mg/kg/injection, schedule: Q01DX009 (ip), vehicle: saline) was 100 % of control. For the same compound, the T/C (dose: 12.5 mg/kg/injection, schedule: Q01DX001 (ip), vehicle: saline) was 124 % of control, the T/C [2] was 102 % of control and 106 % of control and the T/C [3] was 110 % of control. The T/C [4] was 106 % of control and 112 % of control, the T/C (dose: 27.0 mg/kg/injection, schedule: Q04DX003 (ip), vehicle: water) was 113 % of control and the T/C (dose: 45.0 mg/kg/injection, schedule: Q01DX001 (ip), vehicle: saline) was 112 % of control. The T/C (dose: 60.0 mg/kg/injection, schedule: Q01DX009 (ip), vehicle: saline) was 100 % of control and 123 % of control, the T/C (dose: 75.0 mg/kg/injection, schedule: Q01DX001 (ip), vehicle: saline) was 108 % of control and the T/C (dose: 108.0 mg/kg/injection, schedule: Q04DX003 (ip), vehicle: water) was 192 % of control.
For `COc1cc2ccc(CCNCc3ccccc3)cc2cc1OC`, the T/C (dose: 25.0 mg/kg/injection, schedule: Q04DX003 (ip), vehicle: saline sonified) was 92 % of control, the T/C (dose: 50.0 mg/kg/injection, schedule: Q04DX003 (ip), vehicle: saline sonified) was 95 % of control and the T/C [5] was 116 % of control. The T/C (dose: 100.0 mg/kg/injection, schedule: Q04DX003 (ip), vehicle: saline sonified) was 92 % of control.
With `CC1NC1(c1ccccc1)[n+]1ccccc1` (stereo not drawn) the T/C [6] was 100 % of control.
For `COc1cc([C@@H]2c3cc4c(cc3[C@@H](OC3OC5COC(C)OC5C(O)C3O)[C@H]3COC(=O)[C@H]23)OCO4)cc(OC)c1O` (stereo partly drawn), the T/C (dose: 5.0 mg/kg/injection, schedule: Q01DX009 (ip), vehicle: Klucel (hydroxypropylcellulose) (HPC)) was 321 % of control.
`N=Cc1c(O)[nH]c(=O)[nH]c1=O` was tested, and the T/C [5] was 105 % of control, the T/C (dose: 100.0 mg/kg/injection, schedule: Q04DX003 (ip), vehicle: Klucel (hydroxypropylcellulose) (HPC)) was 100 % of control and the T/C [6] was 119 % of control. The T/C (dose: 200.0 mg/kg/injection, schedule: Q04DX003 (ip), vehicle: Klucel (hydroxypropylcellulose) (HPC)) was 93 % of control and the T/C (dose: 400.0 mg/kg/injection, schedule: Q01DX001 (ip), vehicle: saline) was 88 % of control.
`Cn1c(O)c(C=N)c(=O)n(C)c1=O` was tested, and the T/C (dose: 12.0 mg/kg/injection, schedule: Q01DX001 (ip), vehicle: saline) was 102 % of control, the T/C [2] was 97 % of control and the T/C [3] was 105 % of control. For the same compound, the T/C [4] was 100 % of control, the T/C (dose: 50.0 mg/kg/injection, schedule: Q01DX001 (ip), vehicle: saline) was 100 % of control and the T/C (dose: 50.0 mg/kg/injection, schedule: Q04DX003 (ip), vehicle: saline) was 100 % of control.
With `NS(=O)(=O)c1ccc(N=Nc2nc3ncnc(SCc4cccs4)c3[nH]2)cc1` the T/C (dose: 100.0 mg/kg/injection, schedule: Q01DX001 (ip), vehicle: Klucel (hydroxypropylcellulose) (HPC)) was 97 % of control, the T/C (dose: 200.0 mg/kg/injection, schedule: Q01DX001 (ip), vehicle: Klucel (hydroxypropylcellulose) (HPC)) was 102 % of control and the T/C (dose: 400.0 mg/kg/injection, schedule: Q01DX001 (ip), vehicle: Klucel (hydroxypropylcellulose) (HPC)) was 107 % of control.
